Drawing on patent US10961231B2, “NTCP inhibitors” (National Institute of Biological Sciences, Beijing, priority 2018, dated 2021), this text covers IC50 for 22 compounds.

What is called IC50 is the point on the concentration scale where inhibition reaches its midpoint. A lower IC50 goes with higher potency.

One test addresses T1, NTCP (Homo sapiens, UniProt Q14973).
T1 sequence (Q14973 1-349): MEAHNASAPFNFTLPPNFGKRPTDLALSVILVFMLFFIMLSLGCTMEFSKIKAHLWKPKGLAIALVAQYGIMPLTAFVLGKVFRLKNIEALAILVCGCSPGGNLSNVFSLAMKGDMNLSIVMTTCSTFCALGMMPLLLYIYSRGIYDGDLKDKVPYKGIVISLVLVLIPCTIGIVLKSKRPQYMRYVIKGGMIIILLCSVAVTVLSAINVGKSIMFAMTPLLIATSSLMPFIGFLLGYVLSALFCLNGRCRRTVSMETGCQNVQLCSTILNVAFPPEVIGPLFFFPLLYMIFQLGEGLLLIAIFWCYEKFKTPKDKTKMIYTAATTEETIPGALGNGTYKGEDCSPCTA
Put plainly: [3H]-TCA uptake assay (NTCP inhibition). It is filed as cell-based. The note with it: IC50, given as a range, marked * (asterisk not explained). The procedure, abridged: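 Read-out is liquid scintillation counting of Triton X-100 lysates after 15 min, 37° C uptake of 1 μM [3H]-taurocholate in Na+ Ringer's buffer (145 mM Na). Beforehand, PTH and HepG2-NTCP cells had 24 h in PMM for NTCP induction and 2 h of compound or DMSO treatment.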
In turn, `CCC1NC(=O)C(C2OC(Oc3ccc(OC)cc3)CC2C)N(C)C(=O)C(C(C)C)N(C)C(=O)C(CC(C)C)N(C)C(=O)C(CC(C)C)N(C)C(=O)C(C)NC(=O)C(C)NC(=O)C(CC(C)C)N(C)C(=O)C(C(C)C)NC(=O)C(CC(C)C)N(C)C(=O)CN(C)C1=O` (stereo not shown) [Compound 26A-o] displayed an IC50 of 1000 to 100000 nM.

The compound `CCOc1ccc(OC2CC(C)C(C3C(=O)NC(CC)C(=O)N(C)CC(=O)N(C)C(CC(C)C)C(=O)NC(C(C)C)C(=O)N(C)C(CC(C)C)C(=O)NC(C)C(=O)NC(C)C(=O)N(C)C(CC(C)C)C(=O)N(C)C(CC(C)C)C(=O)N(C)C(C(C)C)C(=O)N3C)O2)cc1` (stereo not shown) [Compound 27A-o] came in with an IC50 of 1000 to 100000 nM.

Take `CCC1NC(=O)C(C2OC(Oc3cccc(OC)c3)CC2C)N(C)C(=O)C(C(C)C)N(C)C(=O)C(CC(C)C)N(C)C(=O)C(CC(C)C)N(C)C(=O)C(C)NC(=O)C(C)NC(=O)C(CC(C)C)N(C)C(=O)C(C(C)C)NC(=O)C(CC(C)C)N(C)C(=O)CN(C)C1=O` (stereo not shown) [Compound 28A-o]: the 50% inhibitory concentration (IC50) fell in the range of 1000 to 100000 nM.

On to `CCOc1cccc(OC2CC(C)C(C3C(=O)NC(CC)C(=O)N(C)CC(=O)N(C)C(CC(C)C)C(=O)NC(C(C)C)C(=O)N(C)C(CC(C)C)C(=O)NC(C)C(=O)NC(C)C(=O)N(C)C(CC(C)C)C(=O)N(C)C(CC(C)C)C(=O)N(C)C(C(C)C)C(=O)N3C)O2)c1` (stereo not shown) [Compound 29A-o], for which the 50% inhibitory concentration (IC50) lay within 1000 to 100000 nM.

For `CCC1NC(=O)C(C2OC(Oc3cccc(OC(C)C)c3)CC2C)N(C)C(=O)C(C(C)C)N(C)C(=O)C(CC(C)C)N(C)C(=O)C(CC(C)C)N(C)C(=O)C(C)NC(=O)C(C)NC(=O)C(CC(C)C)N(C)C(=O)C(C(C)C)NC(=O)C(CC(C)C)N(C)C(=O)CN(C)C1=O` (stereo not shown) [Compound 30A-6], the IC50 was 1000 to 100000 nM.

Regarding `CCCOc1cccc(OC2CC(C)C(C3C(=O)NC(CC)C(=O)N(C)CC(=O)N(C)C(CC(C)C)C(=O)NC(C(C)C)C(=O)N(C)C(CC(C)C)C(=O)NC(C)C(=O)NC(C)C(=O)N(C)C(CC(C)C)C(=O)N(C)C(CC(C)C)C(=O)N(C)C(C(C)C)C(=O)N3C)O2)c1` (stereo not shown) [Compound 31A-o], the 50% inhibitory concentration (IC50) was in the range of 1000 to 100000 nM.

The compound `CCC1NC(=O)C(C2OC(Oc3cccc(OCC4CC4)c3)CC2C)N(C)C(=O)C(C(C)C)N(C)C(=O)C(CC(C)C)N(C)C(=O)C(CC(C)C)N(C)C(=O)C(C)NC(=O)C(C)NC(=O)C(CC(C)C)N(C)C(=O)C(C(C)C)NC(=O)C(CC(C)C)N(C)C(=O)CN(C)C1=O` (stereo not shown) [Compound 32A-o] came in with an IC50 of 1000 to 100000 nM.

On to `CCC1NC(=O)C(C2OC(Oc3cccc(OCC4CCOCC4)c3)CC2C)N(C)C(=O)C(C(C)C)N(C)C(=O)C(CC(C)C)N(C)C(=O)C(CC(C)C)N(C)C(=O)C(C)NC(=O)C(C)NC(=O)C(CC(C)C)N(C)C(=O)C(C(C)C)NC(=O)C(CC(C)C)N(C)C(=O)CN(C)C1=O` (stereo not shown) [Compound 33A-o], for which the IC50 lay within 1000 to 100000 nM.

Take `CCC1NC(=O)C(C2OC(Oc3cccc(OC(C)c4ccccc4)c3)CC2C)N(C)C(=O)C(C(C)C)N(C)C(=O)C(CC(C)C)N(C)C(=O)C(CC(C)C)N(C)C(=O)C(C)NC(=O)C(C)NC(=O)C(CC(C)C)N(C)C(=O)C(C(C)C)NC(=O)C(CC(C)C)N(C)C(=O)CN(C)C1=O` (stereo not shown) [Compound 34A-o]: the IC50 was 1000 to 100000 nM.

Compound `CCC1NC(=O)C(C2OC(Oc3cccc(OCCc4ccccc4)c3)CC2C)N(C)C(=O)C(C(C)C)N(C)C(=O)C(CC(C)C)N(C)C(=O)C(CC(C)C)N(C)C(=O)C(C)NC(=O)C(C)NC(=O)C(CC(C)C)N(C)C(=O)C(C(C)C)NC(=O)C(CC(C)C)N(C)C(=O)CN(C)C1=O` (stereo not shown) [Compound 35A-o] registered an IC50 of 1000 to 100000 nM.

As for `CCC1NC(=O)C(C2OC(Oc3c(OC)cccc3OC)CC2C)N(C)C(=O)C(C(C)C)N(C)C(=O)C(CC(C)C)N(C)C(=O)C(CC(C)C)N(C)C(=O)C(C)NC(=O)C(C)NC(=O)C(CC(C)C)N(C)C(=O)C(C(C)C)NC(=O)C(CC(C)C)N(C)C(=O)CN(C)C1=O` (stereo not shown) [Compound 36A-o], the IC50 was 1000 to 100000 nM.

Still in this test, the particulars now being: IC50, given as a range; assay not given.
Take `CCC1NC(=O)C(C2OC(Sc3c(OC)cccc3OC)CC2C)N(C)C(=O)C(C(C)C)N(C)C(=O)C(CC(C)C)N(C)C(=O)C(CC(C)C)N(C)C(=O)C(C)NC(=O)C(C)NC(=O)C(CC(C)C)N(C)C(=O)C(C(C)C)NC(=O)C(CC(C)C)N(C)C(=O)CN(C)C1=O` [Compound 36A, [2-((2R,3R)-5-(2,6-dimethoxyphenylthio)-3-methyltetrahydrofuran-2-yl)-2-(methylamino)acetic acid]^1-cyclosporin A]: the half-maximal inhibitory concentration (IC50) lay within 1000 to 10000 nM.

The same test, now with this note: given as a range; assay not given.
`CCOc1ccc(SC2CC(C)C(C3C(=O)NC(CC)C(=O)N(C)CC(=O)N(C)C(CC(C)C)C(=O)NC(C(C)C)C(=O)N(C)C(CC(C)C)C(=O)NC(C)C(=O)NC(C)C(=O)N(C)C(CC(C)C)C(=O)N(C)C(CC(C)C)C(=O)N(C)C(C(C)C)C(=O)N3C)O2)cc1` [Compound 27A, [2-((2R,3R)-5-(4-ethoxyphenylthio)-3-methyltetrahydrofuran-2-yl)-2-(methylamino)acetic acid]^1-cyclosporin A] showed an IC50 of 1 to 1000 nM.

`CCC1NC(=O)C(C2OC(Sc3cccc(OC)c3)CC2C)N(C)C(=O)C(C(C)C)N(C)C(=O)C(CC(C)C)N(C)C(=O)C(CC(C)C)N(C)C(=O)C(C)NC(=O)C(C)NC(=O)C(CC(C)C)N(C)C(=O)C(C(C)C)NC(=O)C(CC(C)C)N(C)C(=O)CN(C)C1=O` [Compound 28A, [2-((2R,3R)-5-(3-methoxyphenylthio)-3-methyltetrahydrofuran-2-yl)-2-(methylamino)acetic acid]^1-cyclosporin A] returned an IC50 of 1 to 1000 nM.

Regarding `CCOc1cccc(SC2CC(C)C(C3C(=O)NC(CC)C(=O)N(C)CC(=O)N(C)C(CC(C)C)C(=O)NC(C(C)C)C(=O)N(C)C(CC(C)C)C(=O)NC(C)C(=O)NC(C)C(=O)N(C)C(CC(C)C)C(=O)N(C)C(CC(C)C)C(=O)N(C)C(C(C)C)C(=O)N3C)O2)c1` [Compound 29A, [2-((2R,3R)-5-(3-ethoxyphenylthio)-3-methyltetrahydrofuran-2-yl)-2-(methylamino)acetic acid]^1-cyclosporin A], the half-maximal inhibitory concentration (IC50) was 1 to 1000 nM.

In turn, `CCC1NC(=O)C(C2OC(Sc3cccc(OC(C)C)c3)CC2C)N(C)C(=O)C(C(C)C)N(C)C(=O)C(CC(C)C)N(C)C(=O)C(CC(C)C)N(C)C(=O)C(C)NC(=O)C(C)NC(=O)C(CC(C)C)N(C)C(=O)C(C(C)C)NC(=O)C(CC(C)C)N(C)C(=O)CN(C)C1=O` [Compound 30A, [2-((2R,3R)-5-(3-isopropoxyphenylthio)-3-methyltetrahydrofuran-2-yl)-2-(methylamino)acetic acid]^1-cyclosporin] had an IC50 of 1 to 1000 nM.

`CCCOc1cccc(SC2CC(C)C(C3C(=O)NC(CC)C(=O)N(C)CC(=O)N(C)C(CC(C)C)C(=O)NC(C(C)C)C(=O)N(C)C(CC(C)C)C(=O)NC(C)C(=O)NC(C)C(=O)N(C)C(CC(C)C)C(=O)N(C)C(CC(C)C)C(=O)N(C)C(C(C)C)C(=O)N3C)O2)c1` [Compound 31A, [2-((2R,3R)-3-methyl-5-(3-propoxyphenylthio)tetrahydrofuran-2-yl)-2-(methylamino)acetic acid]^1-cyclosporin A] had a 50% inhibitory concentration (IC50) of 1 to 1000 nM.

The compound `CCC1NC(=O)C(C2OC(Sc3cccc(OCC4CC4)c3)CC2C)N(C)C(=O)C(C(C)C)N(C)C(=O)C(CC(C)C)N(C)C(=O)C(CC(C)C)N(C)C(=O)C(C)NC(=O)C(C)NC(=O)C(CC(C)C)N(C)C(=O)C(C(C)C)NC(=O)C(CC(C)C)N(C)C(=O)CN(C)C1=O` [Compound 32A, [2-((2R,3R)-5-(3-(cyclopropylmethoxy)phenylthio)-3-methyltetrahydrofuran-2-yl)-2-(methylamino)acetic acid]^1-cyclosporin A] came in with a half-inhibitory concentration (IC50) of 1 to 1000 nM.

`CCC1NC(=O)C(C2OC(Sc3cccc(OCC4CCOCC4)c3)CC2C)N(C)C(=O)C(C(C)C)N(C)C(=O)C(CC(C)C)N(C)C(=O)C(CC(C)C)N(C)C(=O)C(C)NC(=O)C(C)NC(=O)C(CC(C)C)N(C)C(=O)C(C(C)C)NC(=O)C(CC(C)C)N(C)C(=O)CN(C)C1=O` [Compound 33A, [2-((2R,3R)-3-methyl-5-(3-((tetrahydro-2H-pyran-4-yl)methoxy)phenylthio)tetrahydrofuran-2-yl)-2-(methylamino)acetic acid]^1-cyclosporin A] yielded a half-maximal inhibitory concentration (IC50) of 1 to 1000 nM.

For the compound `CCC1NC(=O)C(C2OC(Sc3cccc(OC(C)c4ccccc4)c3)CC2C)N(C)C(=O)C(C(C)C)N(C)C(=O)C(CC(C)C)N(C)C(=O)C(CC(C)C)N(C)C(=O)C(C)NC(=O)C(C)NC(=O)C(CC(C)C)N(C)C(=O)C(C(C)C)NC(=O)C(CC(C)C)N(C)C(=O)CN(C)C1=O` [Compound 34A, [2-((2R,3R)-3-methyl-5-(3-(1-phenylethoxy)phenylthio)tetrahydrofuran-2-yl)-2-(methylamino)acetic acid]^1-cyclosporin A], the IC50 lay in the range of 1 to 1000 nM.

`CCC1NC(=O)C(C2OC(Sc3cccc(OCCc4ccccc4)c3)CC2C)N(C)C(=O)C(C(C)C)N(C)C(=O)C(CC(C)C)N(C)C(=O)C(CC(C)C)N(C)C(=O)C(C)NC(=O)C(C)NC(=O)C(CC(C)C)N(C)C(=O)C(C(C)C)NC(=O)C(CC(C)C)N(C)C(=O)CN(C)C1=O` [Compound 35A, [2-((2R,3R)-3-methyl-5-(3-phenethoxyphenylthio)tetrahydrofuran-2-yl)-2-(methylamino)acetic acid]^1-cyclosporin A] returned an IC50 of 1 to 1000 nM.

For `CCC1NC(=O)C(C2OC(Sc3ccc(OC)c(OC)c3)CC2C)N(C)C(=O)C(C(C)C)N(C)C(=O)C(CC(C)C)N(C)C(=O)C(CC(C)C)N(C)C(=O)C(C)NC(=O)C(C)NC(=O)C(CC(C)C)N(C)C(=O)C(C(C)C)NC(=O)C(CC(C)C)N(C)C(=O)CN(C)C1=O` [Compound 37A, [2-((2R,3R)-5-(3,4-dimethoxyphenylthio)-3-methyltetrahydrofuran-2-yl)-2-(methylamino)acetic acid]^1-cyclosporin A], the concentration for half-maximal inhibition (IC50) was 1 to 1000 nM.
